By EC50 is commonly meant the concentration giving half of the maximal effect.

This note sets out measurements from article PMC5488875 (Anticancer research, 2017).

The test system of data set [1] is MDA-MB-231 cells.
The test system of data set [2] is MDA-MB-231 cells. Put plainly: ROS assay. The class given is cell-based.
In data set [3] the test system is HT-29 colon cancer cell line. As to the kind of experiment: ROS assay. The format is cell-based. To be noted: HT-29, 100 μM (highest concentration).
The subject of data set [4] is HeLa cervical cancer cell line. Put plainly: ROS assay. The format is cell-based. Particulars: 100 μM (highest concentration).

In the data set on MDA-MB-231 cells [1], acetylwortmannolone [Compound 1] yielded an EC50 of 8.93 µM. Also, the “ROS (reactive oxygen species fold increase)” value in the data set with MDA-MB-231 cells [2] (MDA-MB-231 cells, concentration not given) was 1.58 fold increase.

For `COC[C@H]1OC(=O)c2coc3c2[C@@]1(C)C1=C(C3=O)[C@@H]2CCC(=O)[C@@]2(C)C[C@H]1OC(C)=O` [wortmannin], the figures for the ROS inducing effect entry (in data set [3]; in the data set with MDA-MB-231 cells [2] (MDA-MB-231 breast cancer cells); in data set [4]) were “Strong ROS inducing effect”, “potent ROS inducing agent” and “Strong ROS inducing effect”, respectively. For the same compound, the “difference in concentration to exhibit the same ROS effect in the other two cancer cell lines” value in the data set with MDA-MB-231 cells [2] (MDA-MB-231 vs HeLa and HT-29) is reported as 1000 x.
